{"source": "patent US12569487B2", "about": "“Treatment of hidradenitis with jak inhibitors” (PFIZER INC., priority 2019, dated 2026)", "origin": "cited, not measured here", "tested_on": "patients with moderate to severe HS", "conditions": "for Clinical response rate (hidradenitis suppurativa clinical response, HiSCR): adalimumab weekly", "note": "Read-outs that look alike come from different tables or passages of the source.", "data": [{"substance": "adalimumab", "values": [{"measurement": "Clinical response rate (hidradenitis suppurativa clinical response, HiSCR)", "setting": "PIONEER I, Week 12, placebo 26.0%, P=0.003, oral antibiotics stopped at least 28 days before baseline", "result": 41.8, "unit": "%"}, {"measurement": "Clinical response rate (hidradenitis suppurativa clinical response, HiSCR)", "setting": "PIONEER II, Week 12, placebo 27.6%, P<0.001, stable tetracycline-class antibiotics allowed", "result": 58.9, "unit": "%"}, {"measurement": "Rank-ordered secondary outcomes (lesions, pain, modified Sartorius score) versus placebo", "setting": "Week 12, in PIONEER II only", "result": "significantly greater improvement"}, {"measurement": "Patients with moderate to severe HS who did not respond to treatment", "setting": "summary of the PIONEER trials", "result": "~40", "unit": "%"}]}]}
